Reference: US20250228801A1, “USE OF Galectin-1 INHIBITOR IN PREPARATION OF DRUG FOR TREATING PULMONARY FIBROSIS” (Institute of Basic Medical Sciences, CAMS, priority 2024, published 2025)

Assays:
[1] = system: fibrosis factors Fn-1 and Col-I, hydroxyproline; test: Fibrosis factors (qPCR) and HYP content in lung tissue of silicosis mice; format: in vivo, mouse; conditions: OTX008 5 mg/kg i.p.
Text: (§1) Male C57BL/6J mice (aged 8 weeks and weighing 25-30 g) were selected and housed in an SPF grade laboratory animal room, and the model of silicosis was constructed by one-time intratracheal instillation of silica (Si); the mice were divided into four groups (n=9): • 1) PBS+vehicle group: tracheal infusion of PBS, intraperitoneal injection of vehicle (10% DMSO+90% corn oil) 2 weeks later, once every other day for 3 weeks; • 2) PBS+OTX008 group: PBS was given by tracheal infusion, and 2 weeks later, OTX008 (5 mg/kg) was given by intraperitoneal injection, once every other day for 3 weeks; • 3) Si+vehicle group: Silica suspension (300 mg/mL, 40 μL) was given tracheal infusion, and vehicle (10% DMSO+90% corn oil) was given intraperitoneal injection 2 weeks later, once every other day for 3 weeks; and • 4) Si+OTX008 group: Silica suspension (300 mg/mL, 40 μL) was given tracheal infusion, and OTX008 (5 mg/kg) was given intraperitoneal injection 2 weeks later, once every other day for 3 weeks.
(§2) All mice were sacrificed after the administration, and the corresponding samples were collected for detection.
(§3) Lung tissue RNA of all mice was extracted; cDNA was obtained by using a reverse transcription kit (KR103, Tiangen Biotechnology, Beijing, China); qPCR was conducted by using a SYBR Green I Q-PCR Kit (TransGen Biotech, Beijing China); data collection and analysis were conducted by Bio-Rad IQ5 system.
30 mg of mouse lung tissue was detected using an HYP kit (NBP2-59747, Novus Biologicals, Littleton, CO, USA).

[2] = system: inflammatory factors IL-1β and IL-6; test: Inflammatory factors in silicosis mice (qPCR of lung tissue, ELISA of BALF); format: in vivo, mouse; conditions: OTX008 5 mg/kg i.p.
Text: as §1, §2
(§4) Concentrations of inflammatory factors IL-1β and IL-6 as well as Galectin-1 in mouse BALF were detected by using ELISA kits.
as §3

silicosis mice [3] = test: Pulmonary function test in silicosis mouse model; format: in vivo; conditions: OTX008 5 mg/kg i.p.
Text: as §1
Anesthetized mice were fixed on an experimental table, and mouse lung function was detected by a pulmonary function testing system (DSI Buxco, USA). Before experiment, the mouse was anesthetized by intraperitoneal injection of 0.4 mL/100 g 2% pentobarbital, tracheotomy was performed, a trachea cannula was inserted, and a ventilator was connected. Next, FRC, PV, FV, and RC were automatically tested by a PET system. Indicators closely related to lung function changes in silicosis for statistical analysis, including lung volume indicators such as IC, and pulmonary ventilation function tests such as RI, Cdyn, and Cchord.

silicosis mice [4] = test: Pathological staining (HE, Masson) of lung tissue of silicosis mice; format: in vivo, mouse; conditions: OTX008 5 mg/kg i.p.
Text: as §1
The left lung was fixed in 4% paraformaldehyde for 72 h, dehydrated, paraffin-embedded, sectioned (to 5 μm), and subjected to HE staining and Masson staining, respectively. The HE staining was conducted to calculate the inflammation score based on Szapiel's score. The scoring method included no inflammation (grade 0), mild (grade 1), moderate (grade 2), and severe (grade 3); Masson staining was conducted to evaluate the degree of fibrosis based on the King score. Specifically, different silicosis nodules were evaluated for fibrosis degree according to King's method, with levels ranging from 0 to 5. Each silicosis nodule was assigned a corresponding fibrosis damage score, which was calculated as the fibrosis level score (0-5) multiplied by its percentage of the total area of the tissue section. The sections were scanned, photographed and counted by a 3D HISTECH digital slide scanner.

Galectin-1 = Galectin-1 levels in silicosis mice (qPCR of lung tissue, ELISA of BALF); format: in vivo, mouse
Text: as §1, §2, §4, §3

In the case of `CN(C)CCNC(=O)COc1c2cccc1Cc1cccc(c1OCC(=O)NCCN(C)C)Cc1cccc(c1OCC(=O)NCCN(C)C)Cc1cccc(c1OCC(=O)NCCN(C)C)C2` [OTX008], the “collagen-specific amino acid HYP in lung tissue” value ([1]; HYP kit, FIG. 6C) is reported as “decreased”, the “transcription level of Col-I in lung tissue” value ([1]; qPCR, FIG. 6A) is reported as “decreased” and the “transcription level of Fn-1 in lung tissue” value ([1]; qPCR, FIG. 6B) is reported as “decreased”. For the same compound, the “concentration of IL-1β in alveolar lavage fluid” value ([2]; ELISA, FIG. 4C) was “decreased”, the “concentration of IL-6 in alveolar lavage fluid” value ([2]; ELISA, FIG. 4D) was “decreased” and the “transcription level of Il-1β in lung tissue” value ([2]; qPCR, FIG. 4A) was “decreased”. For the same compound, the “transcription level of Il-6 in lung tissue” value ([2]; qPCR, FIG. 4B) was “decreased”, the “lung function: inspiratory capacity (IC)” value (silicosis mice [3]; FIG. 3A) was “improved significantly” and the “lung function: inspiratory resistance (RI)” value (silicosis mice [3]; FIG. 3B) was “improved significantly”. For the same compound, the “lung function: dynamic compliance (Cdyn)” value (silicosis mice [3]; FIG. 3C) was “improved significantly”, the “lung function: quasi-static compliance (Cchord)” value (silicosis mice [3]; FIG. 3D) was “improved significantly” and the “progression of pulmonary fibrosis” value (silicosis mice [4]) was “effectively alleviate”. For the same compound, the “fibrosis lesions (Masson staining)” value (silicosis mice [4]; FIGS. 7A-7D) was “reduced”, the “inflammatory infiltration in the lungs” value (silicosis mice [4]; HE staining) was “reduced” and the “degree of the disease (lesions)” value (silicosis mice [4]; Masson staining) was “alleviated”. The “Galectin-1 translation level in alveolar lavage fluid” value (Galectin-1; OTX008 5 mg/kg i.p., ELISA) was “decreased”, the “Lgals1 transcription level in lung tissue” value (Galectin-1; OTX008 5 mg/kg i.p., qPCR) was “decreased” and the “levels of Galectin-1 (transcription and translation)” value (Galectin-1; OTX008 5 mg/kg intraperitoneal, once every other day for 3 weeks) was “effectively inhibited”.
